In patent US9295708B2, “Modified release formulations for oprozomib” (Onyx Therapeutics, Inc., priority 2012, dated 2016):
Values after ≈ are worked out from the molar mass of the structure shown.

Assay: API solubility in water
Format: physicochemical

In the case of `COC[C@H](NC(=O)c1cnc(C)s1)C(=O)N[C@@H](COC)C(=O)N[C@@H](Cc1ccccc1)C(=O)[C@@]1(C)CO1` [API, Oprozomib], the solubility is reported as about 500 µg/mL (≈ 939 µM).
